From PMC8632254 (Frontiers in Pharmacology, 2021)

Columns and labels:
SFTSV [1] = assay: microbe, parasite or virus in culture; assay type: cell-based; details: Severe fever with thrombocytopenia syndrome virus, Vero
SFTSV [2] = assay: microbe, parasite or virus in culture; assay type: cell-based, Severe fever with thrombocytopenia syndrome virus; details: for IC50: Severe fever with thrombocytopenia syndrome virus, HUVEC
SFTSV [3] = assay type: cell-based, Severe fever with thrombocytopenia syndrome virus
in vitro [4] = details: African green monkey
in vitro [5] = details: human
SFTSV [6] = assay type: cell-based, Severe fever with thrombocytopenia syndrome virus; remark: listed apart in the source
SFTSV [7] = assay type: cell-based, Severe fever with thrombocytopenia syndrome virus; remark: listed apart in the source
SFTSV [8] = assay type: cell-based, Severe fever with thrombocytopenia syndrome virus; remark: listed apart in the source
SFTSV [9] = assay type: cell-based, Severe fever with thrombocytopenia syndrome virus; remark: listed apart in the source
SFTSV [10] = assay type: cell-based, Severe fever with thrombocytopenia syndrome virus; remark: listed apart in the source
SFTSV mini-genome = assay type: cell-based, Severe fever with thrombocytopenia syndrome virus
SFTSV [11] = system: SFTSV; set-up: species or system C57BL/6 mice; details: mouse, in vivo, ip, 4 mg/kg/day
[12] = system: Rift Valley fever virus (RVFV); assay: microbe, parasite or virus in culture; assay type: cell-based; details: HUVEC
[13] = system: Rift Valley fever virus (RVFV); assay type: cell-based
SARS-CoV-2 [14] = assay: microbe, parasite or virus in culture; assay type: cell-based; details: Severe acute respiratory syndrome coronavirus 2, Vero C1008
SARS-CoV-2 [15] = assay type: cell-based
HUVEC cells = details: human
SFTSV [16] = details: mouse, in vivo, ip, 1 mg/kg/day

With `O=C1OC[C@H]2OC(O)[C@H](O)[C@@H](O)[C@@H]2OC(=O)c2cc(O)c(O)c(O)c2-c2c(O)c(O)c3oc(=O)c4c(c(O)c(O)c5oc(=O)c2c3c54)-c2c1cc(O)c(O)c2O` (mixture of isomers) [Punicalin, punicalin] the IC50 (SFTSV [1]) was 3.8 µM, the SI (SFTSV [2]) was over 100 and the IC50 (SFTSV [2]) was 2.5 µM. The “virucidal effect on SFTSV virions” value (SFTSV [3]) was “directly inactivated virions in a dose dependent manner”, the CC50 (in vitro [4]) was over 125 µM and the CC50 (in vitro [5]) was over 250 µM.

`CC(C)=CCCC(C)(O)C1CCC2(C)C1C(O)CC1C3(C)CCC(OC4OC(CO)C(O)C(O)C4OC4OC(CO)C(O)C(O)C4OC4OCC(O)C(O)C4O)C(C)(C)C3CCC12C` (stereo not shown) [Notoginsenoside Ft1, notoginsenoside Ft1] gave an IC50 (SFTSV [1]) of 3.5 µM, an IC50 (SFTSV [2]) of 11 µM and a CC50 (in vitro [4]) of over 250 µM. The CC50 (in vitro [5]) was about 62.5 µM.

With `CC(=O)O[C@@H]1C[C@H](O)[C@@]23CO[C@@H](O)[C@]1(C)[C@@H]2C[C@@H](O)[C@]1(C)[C@@H]3C(=O)[C@H](OC(C)=O)[C@@]2(C)[C@H](c3ccoc3)C[C@H]3O[C@]321` [Toosendanin, toosendanin] the IC50 (SFTSV [1]) was 1.2 µM, the IC50 (SFTSV [2]) was 0.052 µM and the “virucidal effect on SFTSV virions” value (SFTSV [3]) was “no virucidal effect”. For the same compound, the “vRNA and viral protein expression, time of addition” value (SFTSV [6]) was “decreased significantly when toosendanin was added prior to but not post SFTSV infection”, the “SFTSV binding (vRNA level of bound virions)” value (SFTSV [7]) was “did not inhibit SFTSV binding” and the “accumulation of vRNA (internalization), concentration series” value (SFTSV [8]) was “dose dependent inhibition effect on accumulation of vRNA”. For the same compound, the “relative intracellular vRNA (internalization)” value (SFTSV [8]) was “significantly reduced”, the Number of particles (SFTSV [9]) was 20 and the “amount of internalized viral particles (microscopy)” value (SFTSV [9]) was “significantly reduced the amount of internalized viral particles”. The “syncytium formation (viral fusion)” value (SFTSV [10]) was “No significant difference of syncytium formation”, the “viral RNA replication and transcription (mini-genome)” value (SFTSV mini-genome) was “did not affect the viral RNA replication and transcription” and the “antigen of SFTSV nucleoprotein in spleen sections” value (SFTSV [11]) was “reduced the antigen of SFTSV nucleoprotein in the spleen sections”. For the same compound, the “viral load in the serum” value (SFTSV [11]) was “significantly lower than that of the mice in the vehicle control group”, the IC50 [12] was 0.13 µM and the inhibition at 0.6 µM [12] was 72.6%. For the same compound, the inhibition at 1.8 µM [12] was 82%, the inhibition at 5.6 µM [12] was 95.5% and the inhibition at 16.7 µM [12] was 93.6%. The inhibition at 50 µM [12] was 95.1%, the “time-of-addition result, RVFV” value [13] was “inhibited the entry step of RVFV” and the IC50 (SARS-CoV-2 [14]) was 0.24 µM. For the same compound, the inhibition at 0.21 µM (SARS-CoV-2 [14]) was 42%, the inhibition at 0.62 µM (SARS-CoV-2 [14]) was 84.6% and the inhibition at 1.85 µM (SARS-CoV-2 [14]) was 92.4%. It also gave an inhibition at 5.6 µM (SARS-CoV-2 [14]) of 99%, an inhibition at 16.7 µM (SARS-CoV-2 [14]) of 99.5% and an inhibition at 50 µM (SARS-CoV-2 [14]) of 99.9%. For the same compound, the “time-of-addition result, SARS-CoV-2” value (SARS-CoV-2 [15]) was “revealed inhibitory effect when added 1 h post infection”, the CC50 (HUVEC cells) was over 450 µM and the “megakaryocytes accumulation in spleens (H&E)” value (SFTSV [16]) was “reduced the megakaryocytes accumulation”. The “viral antigen in spleen sections (immunohistochemistry)” value (SFTSV [16]) was “less viral protein positive cells was detected”, the weight loss (SFTSV [16]) was “did not lead to weight loss” and the CC50 (in vitro [5]) was over 250 µM.
